Measurements taken from patent US20050202515A1, “Functional method for generating or screening for ligands which modulate steroid hormone receptors” (Wyeth, priority 2004, published 2005).
Ends that are not written are not given here.

Experiments:
[1] = molecular target: T1, GST-VDR ligand binding domain fusion protein (Homo sapiens, UniProt P11473); test: GST pull-down interaction analysis; conditions: 35S-radiolabeled full length MNAR; absence or presence of 100 nM 1,25(OH)2 Vit. D3
T1 construct: made in house; host or cells: E. coli BL-21 (GST-VDR-LBD); Promega TNT Quick Coupled Transcription/Translation System (MNAR)
Protocol: GST pull-down interaction analysis. A GST fusion to the ligand binding domain of VDR, amino acids 110-427, termed GST-VDR-LBD, was expressed in BL-21 cells and bound to glutathione-Sepharose 4B (Amersham Biosciences, Piscataway, NJ). Wild type MNAR was transcribed/translated and ^35S radiolabeled using Promega TNT Quick Coupled Transcription/Translation System (Madison, Wis.) and incubated for 1 hour at room temperature with GST-VDR-LBD fusion protein bound to glutathione-Sepharose 4B in the absence or presence of 100 nM 1,25(OH)2 Vit. D3 in binding buffer (50 mM Tris pH 8.0, 150 mM NaCl, 1 mM DTT, 1 mM PMSF, 1 mM EDTA, 0.05% NP-40, 1× Protease cocktail). Beads were then washed 4 times with the binding buffer and bound proteins were eluted by addition of SDS buffer and analyzed by SDS-PAGE and autoradiography.

[2] = test system: Akt; test: Western blotting analysis of phosphorylated Akt in MCF-7 cells; assay type: cell-based
Protocol: Transfections and cell lysates preparation. […] Cell debris was removed by centrifugation. […] Equal amount of protein from cell lysates was run on SDS-PAGE. Separated proteins were transferred to nitrocellulose membrane and levels of Akt and p-Akt were determined by western blotting analysis. Akt antibody was from Cell Signaling (anti-Akt cat#9272, anti-p-Akt cat# 9271).

[3] = test system: Akt; test: Akt kinase activity in immunoprecipitate (GSK-3 substrate) from MCF-7 cells; assay type: cell-based; conditions: MNAR overexpression, estradiol for 20 min
Protocol: Transfections and cell lysates preparation. […] Cell debris was removed by centrifugation. […] Briefly, […] of GSK-3 fusion protein was added to the Akt-immunoprecipitate as a substrate. Kinase reaction was run in a reaction buffer supplied by the manufacturer. The level of p-GSK-3 produced in the kinase reaction was analyzed by western blotting analysis.

[4] = test system: PI3-K; test: PI3-K activity in p85 immunoprecipitates from MCF-7 cells; assay type: cell-based
Protocol: Transfections and cell lysates preparation. […] Cell debris was removed by centrifugation.
Immunoprecipitation and kinase assays.
For PI3-K reaction, p85 was immunoprecipitated from cell lysates as described above. Kinase activity in the immunoprecipitate was detected using PI3-Kinase ELISA kit from Echelon Biosciences according to the manufacture's instructions. Briefly, reaction was run in 50 μl volume by adding 5 μl of 10× reaction buffer and 10 μl of PI(4,5)P2 substrate solution (10 μM) to the p85 immunoprecipitate. After the PI3-K reactions was complete, reaction products are first mixed and incubated with a PI(3,4,5)P3 detecting antibody, then added to the PI(3,4,5)P3-coated microplate for competitive binding. A peroxidase-linked secondary detection reagent and colorirnetric detection was used to detect PI(3,4,5)P3 detecting antibody binding to the plate. The colorimetric signal was inversely proportional to the amount of PI(3,4,5)P3 produced by PI 3-K activity.

[5] = molecular target: T2, GST-VDR-LBD (Homo sapiens, UniProt P11473); test: ELISA-based VDR-MNAR interaction analysis; assay type: binding; conditions: GST-VDR-LBD preincubated with vehicle or 1 μM 1,25(OH)2D3; peptide 50 μM
T2 construct: made in house; host or cells: E. coli BL-21
T2 sequence (P11473 110-427): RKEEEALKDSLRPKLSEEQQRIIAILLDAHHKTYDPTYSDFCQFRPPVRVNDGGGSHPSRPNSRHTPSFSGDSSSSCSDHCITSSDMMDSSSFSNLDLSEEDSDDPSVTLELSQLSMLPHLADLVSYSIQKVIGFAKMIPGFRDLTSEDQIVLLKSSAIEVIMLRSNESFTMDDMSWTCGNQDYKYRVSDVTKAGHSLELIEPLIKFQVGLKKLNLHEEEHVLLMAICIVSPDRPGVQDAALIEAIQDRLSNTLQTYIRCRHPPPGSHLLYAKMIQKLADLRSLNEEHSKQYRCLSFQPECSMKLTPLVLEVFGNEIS
Protocol: ELISA-based VDR-MNAR interaction analysis. A rapid, nonisotopic ELISA-type method was used for characterization of VDR-MNAR interactions. Biotinylated peptides corresponding to different MNAR's LXXLL motifs (designated 1-9, sequentially from the most N-terminal motif) were synthesized and immobilized on a Reacti-Bind™ NeutrAvidin™-coated microplate (Pierce Biotechnology, Rockford, Ill.). The microplate was washed twice with binding buffer (50 mM Tris-HCL, pH 8.0, 150 mM NaCl, 1 mM DTT, 1 mM EDTA, 0.01% NP-40, and 0.01% BSA). Peptides were diluted in 100 μl binding buffer to a final concentration of 50 μM and incubated with the Reacti-Bind™ NeutrAvidin™ coated microplate for 1 hour at room temperature, washed 4 times with the binding buffer. GST-VDR-LBD, preincubated with vehicle or 1 μM 1,25(OH)2D3, was allowed to interact with the immobilized peptide corresponding to one of each of the MNAR LXXLL motifs for 2 hours at room temperature. The plate was washed 4 times with binding buffer and incubated with anti-GST antibodies fused to HRP (Sigma, St. Louis, Mo.) for 1 h in binding buffer and washed 4 more times. SuperSignal® ELISA Pico Chemiluminescent Substrate (Pierce Biotechnology, Rockford, Ill.) was used to detect antigen/antibody complex, signal was read using a Wallac Victor2 1420 Multilabel Counter (PerkinElmer Lifesciences, Boston, Mass.).

[6] = test system: Erk 1 and 2; test: Western blotting analysis of Erk 1 and 2 phosphorylation in UMR-106 cells; assay type: cell-based, rat
Protocol: Western blotting analysis. […] After 48 h cells were treated with 10 nM 1,25(OH)2D3 for the indicated time. […] Cell debris were removed by centrifugation and equal amount of protein was run on SDS-PAGE. Separated proteins were transferred to nitrocellulose membrane and levels of MNAR, ERK, and p-ERK were determined by western blotting analysis.

[7] = test system: alkaline phosphatase; test: Quantitative PCR (TaqMan) analysis of alkaline phosphatase in ROS 17/2.8 cells; assay type: cell-based, rat; conditions: overexpression of MNAR, 100 nM, 48 h
Protocol: (§1) Quantitative PCR (TaqMan) analysis. […] Following transfection cells were cultured in media supplemented with 2% charcoal stripped FBS. 16 hours after the transfection cells were treated with 100 nM 1,25(OH)2 Vit.D3 for 24 or 48 hours. Cells were lysed and total RNA was isolated using RNeasy Kit (Quiagen). Quantitative PCR (TaqMan) was performed to determine osteocalcin levels in UMR-106 cells and alkaline phosphatase levels in ROS 17/2.8 cells.

[8] = test system: osteocalcin; test: Quantitative PCR (TaqMan) analysis of osteocalcin in UMR-106 cells; assay type: cell-based, rat; conditions: 100 nM, 24 h
Protocol: as §1

T1 sequence (Q8IZL8 whole entry E896G/T1069P partner, one chain of several, the tested form may be a part): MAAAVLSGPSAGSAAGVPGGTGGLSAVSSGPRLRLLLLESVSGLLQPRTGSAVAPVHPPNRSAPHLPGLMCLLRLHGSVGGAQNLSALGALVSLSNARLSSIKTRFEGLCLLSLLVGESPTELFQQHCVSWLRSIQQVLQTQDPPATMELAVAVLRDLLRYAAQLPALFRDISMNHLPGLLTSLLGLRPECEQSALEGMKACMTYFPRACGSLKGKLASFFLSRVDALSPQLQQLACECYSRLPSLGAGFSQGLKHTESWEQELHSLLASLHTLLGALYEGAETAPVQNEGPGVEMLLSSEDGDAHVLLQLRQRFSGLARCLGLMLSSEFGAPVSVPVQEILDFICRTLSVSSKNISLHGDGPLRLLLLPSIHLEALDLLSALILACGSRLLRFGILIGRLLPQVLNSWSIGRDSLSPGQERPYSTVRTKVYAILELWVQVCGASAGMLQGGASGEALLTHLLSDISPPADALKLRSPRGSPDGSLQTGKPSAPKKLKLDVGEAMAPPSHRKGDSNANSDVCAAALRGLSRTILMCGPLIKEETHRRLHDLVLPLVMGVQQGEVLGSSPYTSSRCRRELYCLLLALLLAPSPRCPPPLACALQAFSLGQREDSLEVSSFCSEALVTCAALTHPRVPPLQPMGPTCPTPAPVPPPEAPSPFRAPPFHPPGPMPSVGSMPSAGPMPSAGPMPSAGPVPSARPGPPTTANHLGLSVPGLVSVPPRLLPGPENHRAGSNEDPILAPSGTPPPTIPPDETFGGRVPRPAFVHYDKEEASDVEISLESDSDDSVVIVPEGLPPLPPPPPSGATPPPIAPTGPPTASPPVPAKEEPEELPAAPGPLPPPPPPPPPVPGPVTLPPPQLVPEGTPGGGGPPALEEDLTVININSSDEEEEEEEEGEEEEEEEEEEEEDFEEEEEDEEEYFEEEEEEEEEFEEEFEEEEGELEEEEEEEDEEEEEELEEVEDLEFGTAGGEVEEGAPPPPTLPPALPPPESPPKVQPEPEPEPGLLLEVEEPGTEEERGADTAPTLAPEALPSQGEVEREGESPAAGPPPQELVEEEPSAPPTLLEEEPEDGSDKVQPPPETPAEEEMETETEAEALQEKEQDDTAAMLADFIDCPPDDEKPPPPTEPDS

“MNAR: modulator of nongenomic activity of estrogen receptor, scaffold protein, GenBank AF547989” was tested, and the “MNAR interaction with VDR-LBD” value [1] was “directly interacts with VDR-LBD in a ligand-dependent manner”.

`C[C@]12CC[C@@H]3c4ccc(O)cc4CC[C@H]3[C@@H]1CC[C@@H]2O` [estradiol, 17β-estradiol] was tested, and the phospho-Akt level ([2]; MCF-7 cells transfected with MNAR-expressing plasmid vs empty vector, 10 nM estradiol for 20 min) was “strong increase in phospho-Akt level”, the “level of phospho-Akt” value ([2]; MCF-7 cells, 10 nM for 20 min) was “increased the level of phospho-Akt” and the “estradiol induced Akt activation (GSK-3 phosphorylation)” value [3] was “stimulates”. For the same molecule, the “estrogen-dependant activation of PI3-K” value ([4]; MCF-7 cells, MNAR overexpression, 10 nM estradiol for 20 min) was “increased” and the PI3-kinase activity ([4]; MCF-7 cells, 10 nM for 20 min) was “stimulation of the PI3-kinase activity”.

In the case of “MNAR LXXLL motif #5: biotinylated peptide corresponding to the fifth LXXLL motif of MNAR, counted from the most N-terminal motif (LPGLLTSLL; also: biotinylated, site not given here)”, the “VDR ligand binding domain interaction with immobilized MNAR LXXLL peptide” value [5] is reported as “ligand-dependently interacted”.

For `C=C1/C(=C\C=C2/CCC[C@]3(C)[C@@H]([C@H](C)CCCC(C)(C)O)CC[C@@H]23)C[C@@H](O)C[C@@H]1O` [1,25(OH)2 Vit D3, 1,25 dihydroxy vitamin D3], the Erk phosphorylation ([6]; MNAR overexpression, 10 nM) was “dramatic increase in Erk phosphorylation”, the “levels of phosphorylated Erk 1 and 2” value ([6]; absence of MNAR (control vector), 10 nM for 10 or 20 min) was “augmentation of the levels of phosphorylated Erk 1 and 2” and the “induction of AP expression level” value [7] was “strongly enhanced”. The “1,25(OH)2 Vit D3-stimulated levels of osteocalcin” value ([8]; MNAR overexpression) was “strong potentiation” and the “level of osteocalcin expression” value ([8]; control plasmid) was “did not affect”.

In the case of `C[C@]12CC[C@@H]3c4ccc(O)cc4C[C@@H](CCCCCCCCC[S+]([O-])CCCC(F)(F)C(F)(F)F)[C@H]3[C@@H]1CC[C@@H]2O` (stereo partly shown) [ICI 182 780], the “effect on estradiol activation of PI3-K activity” value ([4]; MCF-7 cells treated with 10 nM estradiol for 20 min) is reported as “blocked”.
